# Source: PubChem BioAssay (NCI)
#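 All cell lines were grown in 96-well plates and treated with compound for 48 hours. GI50: concentration for 50% inhibition of growth. TGI: total growth inhibition.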
# How the values were obtained:
# Assay in all cases: DTP human tumour cell line panel, 48 h
# A498 renal = test system: A498 renal
# A549 NSCLC = test system: A549 NSCLC
# CAKI-1 renal = test system: CAKI-1 renal
# CCRF-CEM leukemia = test system: CCRF-CEM leukemia
# HCC-2998 colon = test system: HCC-2998 colon
# NCI-H23 lung = test system: NCI-H23 lung
# OVCAR-4 ovarian = test system: OVCAR-4 ovarian
# SF-268 CNS = test system: SF-268 CNS
# SK-OV-3 ovarian = test system: SK-OV-3 ovarian
# U251 CNS = test system: U251 CNS
SMILES,GI50 (A498 renal) [µM],TGI (A498 renal) [µM],GI50 (A549 NSCLC) [µM],TGI (A549 NSCLC) [µM],GI50 (CAKI-1 renal) [µM],TGI (CAKI-1 renal) [µM],GI50 (CCRF-CEM leukemia) [µM],TGI (CCRF-CEM leukemia) [µM],GI50 (HCC-2998 colon) [µM],TGI (HCC-2998 colon) [µM],GI50 (NCI-H23 lung) [µM],TGI (NCI-H23 lung) [µM],GI50 (OVCAR-4 ovarian) [µM],TGI (OVCAR-4 ovarian) [µM],GI50 (SF-268 CNS) [µM],TGI (SF-268 CNS) [µM],GI50 (SK-OV-3 ovarian) [µM],TGI (SK-OV-3 ovarian) [µM],GI50 (U251 CNS) [µM],TGI (U251 CNS) [µM]
Cc1nc2cncc(C#Cc3cncc(C(=O)Nc4ccc(CN5CCN(C)CC5)c(C(F)(F)F)c4)c3)c2nc1C,0.0756,0.772,0.585,7.28,0.438,3.1,1.12,12.5,1.33,20.5,0.77,6.05,0.162,6.74,0.552,18.8,0.251,5.62,0.559,7.43
O=C(Nc1c(Cl)cc([N+](=O)[O-])cc1Cl)C(=O)C1C(=O)NC(=S)NC1=O,,> 100,,> 100,,> 100,,> 100,,> 100,,> 100,,> 100,,> 100,,> 100,,> 100
CS(=O)(=O)N(CCC#N)c1ccc(/C=N/NC(=O)CC(=O)Nc2cccc(Cl)c2)cc1,,> 100,,> 100,,> 100,,> 100,,> 100,,> 100,,> 100,,> 100,,> 100,,> 100
COc1cccc2c1C1(O)C2CCCC12OCCCO2 (stereo not given),,> 100,,> 100,,> 100,,> 100,,> 100,,> 100,,> 100,,> 100,,> 100,,> 100
